In patent US8338565B2, “Macrocyclic compounds for inhibition of tumor necrosis factor alpha” (Ensemble Therapeutics Corporation, priority 2008, dated 2012):
pIC50: −log10 of the molar value. Numbered stars: 1 amine (or outer) side, 2 acyl side, 3 side chain; on linkers, the order of the positions; unused ones are H or OH. Bridge positions count the residues as written; N and C are the ends. Square brackets hold non-standard residues; d marks the D form. Peptide text beside a SMILES is read from it. Tartaroyl(2R,3R-(OAc)2) = CC(=O)O[C@@H](C(=O)[*:1])[C@@H](OC(C)=O)C(=O)[*:2]; Phe(3-CF3) = N[C@@H](Cc1cccc(C(F)(F)F)c1)C(=O)O; Phe(4-CF3) = N[C@@H](Cc1ccc(C(F)(F)F)cc1)C(=O)O; Phe(2,4-Cl2) = N[C@@H](Cc1ccc(Cl)cc1Cl)C(=O)O; Bip = N[C@@H](Cc1ccc(-c2ccccc2)cc1)C(=O)O; dPhe(4-NH2) = Nc1ccc(C[C@@H](N)C(=O)O)cc1; Phe(4-Br) = N[C@@H](Cc1ccc(Br)cc1)C(=O)O; dPhe(2-CN) = N#Cc1ccccc1C[C@@H](N)C(=O)O; Phe(4-NH2) = Nc1ccc(C[C@H](N)C(=O)O)cc1; Ala(2-furyl) = N[C@@H](Cc1ccco1)C(=O)O; dPhe(2-Cl) = N[C@H](Cc1ccccc1Cl)C(=O)O; d(hPhe) = N[C@H](CCc1ccccc1)C(=O)O; d2Thi = N[C@H](Cc1cccs1)C(=O)O; Suc = O=C(CCC(=O)[*:2])[*:1]

What follows are compounds tested against T1, TNFα / TNFα receptor (TNFα R1/Fc) (Homo sapiens, UniProt P01375) (assay: Inhibition of binding of TNFα to the TNFα receptor (plate ELISA competition)). Conditions: Table 2; read-out: Activity (IC50, inhibition of TNFα binding to TNFα R1/Fc).
T1 construct: purchased R&D Systems
T1 sequence (P01375 77-233 limits assumed, species assumed): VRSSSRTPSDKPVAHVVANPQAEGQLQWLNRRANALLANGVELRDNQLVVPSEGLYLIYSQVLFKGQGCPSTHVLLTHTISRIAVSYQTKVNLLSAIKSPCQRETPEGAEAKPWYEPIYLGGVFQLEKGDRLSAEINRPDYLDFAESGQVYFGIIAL
How it was run: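 Plates were coated with TNFα at 15 nM. Test compound and 8.33 nM receptor-Fc (PBST, 2% DMSO) were first mixed in solution for 30 min at room temperature, then transferred to the plates for another 30 min. Competition was read by absorbance at 450 nm after HRP anti-human IgG Fc detection with TMB.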
`COC(=O)[C@@H]1Cc2ccc(cc2)NC(=O)CCC(=O)N[C@H](CC(=O)O)C(=O)N[C@@H](Cc2ccc(C(F)(F)F)cc2)C(=O)N[C@H](Cc2ccccc2)C(=O)N1` [Compound 206] ([dD][Phe(4-CF3)][dF][Phe(4-NH2)]-OMe; linker N-4 via Suc) showed a pIC50 of under 4.00.
Compound `O=C1CCC(=O)N[C@H](Cc2cccs2)C(=O)N[C@@H](Cc2cccc(C(F)(F)F)c2)C(=O)N[C@H](Cc2ccccc2)C(=O)N[C@H](C(=O)O)Cc2ccc(cc2)N1` [Compound 208] ([d2Thi][Phe(3-CF3)][dF][Phe(4-NH2)]-OH; linker N-4 via Suc) has a pIC50 of under 4.00.
With `O=C1COc2ccc(cc2)C[C@@H](C(=O)O)NC(=O)[C@@H](Cc2ccccc2)NC(=O)[C@@H](Cc2ccc(-c3ccccc3)cc2)NC(=O)[C@@H](Cc2cccs2)N1` [Compound 209] the pIC50 was under 4.00.
For `O=C1COc2ccc(cc2)C[C@@H](C(=O)O)NC(=O)[C@@H](Cc2ccccc2)NC(=O)[C@@H](Cc2ccc(-c3ccccc3)cc2)NC(=O)[C@H](Cc2cccs2)N1` [Compound 210], the pIC50 was under 4.00.
With `O=C1COc2ccc(cc2)C[C@@H](C(=O)O)NC(=O)[C@H](Cc2ccccc2)NC(=O)[C@@H](Cc2ccc(-c3ccccc3)cc2)NC(=O)[C@@H](Cc2cccs2)N1` [Compound 211] the pIC50 was 4.00 to 4.52.
With `O=C1COc2ccc(cc2)C[C@@H](C(=O)O)NC(=O)[C@H](Cc2ccccc2)NC(=O)[C@H](Cc2ccc(-c3ccccc3)cc2)NC(=O)[C@@H](Cc2cccs2)N1` [Compound 213] the pIC50 was under 4.00.
`O=C1COc2ccc(cc2)C[C@@H](C(=O)O)NC(=O)[C@H](Cc2ccccc2)NC(=O)[C@@H](Cc2ccc(-c3ccccc3)cc2)NC(=O)[C@H](Cc2cccs2)N1` [Compound 214] showed a pIC50 of over 5.00.
`O=C1COc2ccc(cc2)C[C@@H](C(=O)O)NC(=O)[C@@H](Cc2ccccc2)NC(=O)[C@H](Cc2ccc(-c3ccccc3)cc2)NC(=O)[C@H](Cc2cccs2)N1` [Compound 215] showed a pIC50 of 4.00 to 4.52.
In the case of `O=C1COc2ccc(cc2)C[C@@H](C(=O)O)NC(=O)[C@@H](Cc2ccccc2)NC(=O)[C@H](Cc2ccc(C(F)(F)F)cc2)NC(=O)[C@@H](CCc2ccccc2)N1` [Compound 216], the pIC50 was under 4.00.
For `CC(=O)O[C@H]1C(=O)Nc2ccc(cc2)C[C@H](C(=O)O)NC(=O)[C@@H](CCc2ccccc2)NC(=O)[C@H](Cc2ccc(Br)cc2)NC(=O)[C@@H](Cc2ccccc2)NC(=O)[C@@H]1OC(C)=O` [Compound 218] ([dF][Phe(4-Br)][d(hPhe)][dPhe(4-NH2)]-OH; linker N-4 via Tartaroyl(2R,3R-(OAc)2)), the pIC50 was 4.52 to 5.00.
With `CC(=O)O[C@H]1C(=O)Nc2ccc(cc2)C[C@H](C(=O)O)NC(=O)[C@@H](CCc2ccccc2)NC(=O)[C@H](Cc2ccc(Br)cc2)NC(=O)[C@@H](Cc2cccs2)NC(=O)[C@@H]1OC(C)=O` [Compound 219] ([d2Thi][Phe(4-Br)][d(hPhe)][dPhe(4-NH2)]-OH; linker N-4 via Tartaroyl(2R,3R-(OAc)2)) the pIC50 was over 5.00.
Compound `CC(=O)O[C@H]1C(=O)Nc2ccc(cc2)C[C@H](C(=O)O)NC(=O)[C@@H](CCc2ccccc2)NC(=O)[C@H](Cc2ccc(Cl)cc2Cl)NC(=O)[C@@H](Cc2ccccc2)NC(=O)[C@@H]1OC(C)=O` [Compound 220] ([dF][Phe(2,4-Cl2)][d(hPhe)][dPhe(4-NH2)]-OH; linker N-4 via Tartaroyl(2R,3R-(OAc)2)) has a pIC50 of 4.52 to 5.00.
With `CC(=O)O[C@H]1C(=O)Nc2ccc(cc2)C[C@H](C(=O)O)NC(=O)[C@@H](CCc2ccccc2)NC(=O)[C@H](Cc2ccc(Cl)cc2Cl)NC(=O)[C@@H](Cc2cccs2)NC(=O)[C@@H]1OC(C)=O` [Compound 221] ([d2Thi][Phe(2,4-Cl2)][d(hPhe)][dPhe(4-NH2)]-OH; linker N-4 via Tartaroyl(2R,3R-(OAc)2)) the pIC50 was 4.00 to 4.52.
`CC(=O)O[C@H]1C(=O)Nc2ccc(cc2)C[C@H](C(=O)O)NC(=O)[C@@H](Cc2ccccc2)NC(=O)[C@H](Cc2ccc(-c3ccccc3)cc2)NC(=O)[C@@H](Cc2ccccc2)NC(=O)[C@@H]1OC(C)=O` [Compound 222] ([dF][Bip][dF][dPhe(4-NH2)]-OH; linker N-4 via Tartaroyl(2R,3R-(OAc)2)) was tested, and the pIC50 was under 4.00.
`CC(=O)O[C@H]1C(=O)Nc2ccc(cc2)C[C@@H](C(=O)O)NC(=O)[C@@H](Cc2ccccc2)NC(=O)[C@H](Cc2ccc(-c3ccccc3)cc2)NC(=O)[C@@H](Cc2cccs2)NC(=O)[C@@H]1OC(C)=O` [Compound 223] ([d2Thi][Bip][dF][Phe(4-NH2)]-OH; linker N-4 via Tartaroyl(2R,3R-(OAc)2)) gave a pIC50 of 4.00 to 4.52.
Compound `O=C1CCC(=O)N[C@H](CCc2ccccc2)C(=O)N[C@@H](Cc2ccc(C(F)(F)F)cc2)C(=O)N[C@@H](Cc2ccco2)C(=O)N[C@H](C(=O)O)Cc2ccc(cc2)N1` [Compound 224] ([d(hPhe)][Phe(4-CF3)][Ala(2-furyl)][Phe(4-NH2)]-OH; linker N-4 via Suc) has a pIC50 of under 4.00.
Work on `N#Cc1ccccc1C[C@H]1NC(=O)[C@H](Cc2ccc(C(F)(F)F)cc2)NC(=O)[C@@H](CCc2ccccc2)NC(=O)CCC(=O)Nc2ccc(cc2)C[C@@H](C(=O)O)NC1=O` [Compound 225] ([d(hPhe)][Phe(4-CF3)][dPhe(2-CN)][Phe(4-NH2)]-OH; linker N-4 via Suc) yielded a pIC50 of under 4.00.
Compound `O=C1CCC(=O)N[C@H](CCc2ccccc2)C(=O)N[C@@H](Cc2ccc(C(F)(F)F)cc2)C(=O)N[C@H](Cc2ccccc2Cl)C(=O)N[C@H](C(=O)O)Cc2ccc(cc2)N1` [Compound 226] ([d(hPhe)][Phe(4-CF3)][dPhe(2-Cl)][Phe(4-NH2)]-OH; linker N-4 via Suc) has a pIC50 of 4.52 to 5.00.
In the case of `O=C1COc2ccc(cc2)C[C@@H](C(=O)N[C@H](Cc2ccccc2)C(=O)O)NC(=O)[C@H](Cc2ccccc2)NC(=O)[C@@H](Cc2ccc(-c3ccccc3)cc2)NC(=O)[C@H](Cc2cccs2)N1` [Compound 227], the pIC50 was over 5.00.
With `O=C1COc2ccc(cc2)C[C@@H](C(=O)N[C@H](Cc2ccccc2)C(=O)O)NC(=O)[C@H](Cc2ccccc2)NC(=O)[C@H](Cc2ccc(-c3ccccc3)cc2)NC(=O)[C@H](Cc2cccs2)N1` [Compound 228] the pIC50 was over 5.00.
With `O=C1COc2ccc(cc2)C[C@@H](C(=O)N[C@@H](Cc2ccccc2)C(=O)O)NC(=O)[C@H](Cc2ccccc2)NC(=O)[C@H](Cc2ccc(-c3ccccc3)cc2)NC(=O)[C@H](Cc2cccs2)N1` [Compound 229] the pIC50 was over 5.00.
In the case of `O=C1COc2ccc(cc2)C[C@@H](C(=O)N[C@@H](Cc2ccccc2)C(=O)O)NC(=O)[C@H](Cc2ccccc2)NC(=O)[C@@H](Cc2ccc(-c3ccccc3)cc2)NC(=O)[C@H](Cc2cccs2)N1` [Compound 230], the pIC50 was 4.52 to 5.00.
For `CC(=O)O[C@H]1C(=O)Nc2ccc(cc2)C[C@H](C(=O)O)NC(=O)[C@@H](Cc2ccccc2)NC(=O)[C@H](Cc2ccc(Br)cc2)NC(=O)[C@@H](Cc2ccccc2)NC(=O)[C@@H]1OC(C)=O` [Compound 231] ([dF][Phe(4-Br)][dF][dPhe(4-NH2)]-OH; linker N-4 via Tartaroyl(2R,3R-(OAc)2)), the pIC50 was under 4.00.
Work on `CC(=O)O[C@H]1C(=O)Nc2ccc(cc2)C[C@H](C(=O)O)NC(=O)[C@@H](Cc2ccccc2)NC(=O)[C@H](Cc2ccc(Br)cc2)NC(=O)[C@@H](Cc2cccs2)NC(=O)[C@@H]1OC(C)=O` [Compound 232] ([d2Thi][Phe(4-Br)][dF][dPhe(4-NH2)]-OH; linker N-4 via Tartaroyl(2R,3R-(OAc)2)) yielded a pIC50 of under 4.00.
